Tested on: cos-7 cells
Experiment: DNA transfection: luciferase expression relative to Lipofectamine 2000
Type: cell-based
Details: for Luciferase expression as a percentage of that achieved using Lipofectamine 2000: 300 ng Luciferase DNA per well, luciferase assay after 48 hours; for luciferase expression (second part of table, values relative to LIPO2000): 300 ng of DNA per well
Procedure, shortened: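 Lipid/DNA complexes, 300 ng luciferase DNA per well at 2.5-25 w/w lipid:DNA, were formed in sodium acetate/Optimem and added to overnight-seeded cos-7 cells. Luciferase was measured by Bright-Glo luminescence after 48 hours and quantified against an enzyme standard curve. Values are expressed as % of Lipofectamine 2000 at 2.5 w/w.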

Row | Structure (SMILES) | Luciferase expression as a percentage of that achieved using Lipofectamine 2000 (lipid/DNA 2.5 w/w) | Luciferase expression as a percentage of that achieved using Lipofectamine 2000 (lipid/DNA 5 w/w) | Luciferase expression as a percentage of that achieved using Lipofectamine 2000 (lipid/DNA 10 w/w) | Luciferase expression as a percentage of that achieved using Lipofectamine 2000 (lipid/DNA 15 w/w) | Luciferase expression as a percentage of that achieved using Lipofectamine 2000 (lipid/DNA 20 w/w) | Luciferase expression as a percentage of that achieved using Lipofectamine 2000 (lipid/DNA 25 w/w) | luciferase expression (second part of table, values relative to LIPO2000) (lipid/DNA 2.5 w/w) | luciferase expression (second part of table, values relative to LIPO2000) (lipid/DNA 5 w/w) | luciferase expression (second part of table, values relative to LIPO2000) (lipid/DNA 10 w/w) | luciferase expression (second part of table, values relative to LIPO2000) (lipid/DNA 15 w/w) | luciferase expression (second part of table, values relative to LIPO2000) (lipid/DNA 20 w/w) | luciferase expression (second part of table, values relative to LIPO2000) (lipid/DNA 25 w/w)
1 | CCCCCCCCCCCCCCCCCCOC(=O)CCN(CCCO)CCC(=O)OCCCCCCCCCCCCCCCCCC [LH20] | 0.0% | 0.0% | 0.0% | 0.0% | 0.0% | 0.0% |  |  |  |  |  | 
2 | CCCCCCCCCCCCCCCCCCOC(=O)CCN(CCC(=O)OCCCCCCCCCCCCCCCCCC)C[C@@H](C)O [LH21] | 0.0% | 0.0% | 0.0% | 0.0% | 0.0% | 0.0% |  |  |  |  |  | 
3 | CCCCCCCCCCCCCCCCCCOC(=O)CCN(CCC(=O)OCCCCCCCCCCCCCCCCCC)C[C@H](C)O [LH22] | 0.0% | 0.0% | 0.0% | 0.0% | 0.0% | 0.0% |  |  |  |  |  | 
4 | CCCCCCCCCCCCCCCCCCOC(=O)CCN(CCCCO)CCC(=O)OCCCCCCCCCCCCCCCCCC [LH28] |  |  | 0.2% | 0.2% |  |  |  |  |  |  |  | 
5 | CCCCCCCCCCCCNC(=O)CCN(CCC(=O)NCCCCCCCCCCCC)C(C)(CO)CO [ND26] |  |  |  |  |  |  | 13.4 | 2.3 | 0.1 | 0.0 | 0.0 | 0.0
6 | CCCCCCCCCCCCNC(=O)CCN(CCC(=O)NCCCCCCCCCCCC)CCN(CCO)CCO [ND86] | 0.5% | 0.2% | 0.0% | 0.0% | 0.0% | 0.0% |  |  |  |  |  | 
7 | CCCCCCCCCCCCNC(=O)CCN(CCCN(CCO)CCO)CCC(=O)NCCCCCCCCCCCC [ND87] | 0.0% | 0.0% | 0.0% | 0.0% | 0.0% | 0.0% |  |  |  |  |  | 
8 | CCCCCCCCCCOC(=O)CC[N+](C)(CCCOC)CCC(=O)OCCCCCCCCCC.[I-] [QB1] | 0.4% | 0.3% | 0.4% | 0.3% | 0.4% | 0.4% |  |  |  |  |  | 
9 | CCCCCCCCCCOC(=O)CC[N+](C)(CCC(=O)OCCCCCCCCCC)CCC1OCCO1.[I-] [QB6] | 0.0% | 0.0% | 0.0% | 0.0% | 0.0% | 0.0% |  |  |  |  |  | 
10 | CCCCCCCCCCOC(=O)CC[N+](C)(CCC(=O)OCCCCCCCCCC)CC1COC(C)(C)O1.[I-] (centres unmarked) [QB7] | 0.0% | 0.0% | 0.0% | 0.0% | 0.0% | 0.0% |  |  |  |  |  | 
11 | CCCCCCCCCCCCOC(=O)CC[N+](C)(CCCCO)CCC(=O)OCCCCCCCCCCCC.[I-] [QD28] |  |  | 0.1% | 0.1% |  |  |  |  |  |  |  | 
12 | CCCCCCCCCCCCOC(=O)CC[N+](C)(CCC(=O)OCCCCCCCCCCCC)CC[N+](C)(CCO)CCO.[I-].[I-] [QD86] |  |  | 2.0% | 2.0% |  |  |  |  |  |  |  | 
13 | CCCCCCCCCCCCOC(=O)CC[N+](C)(CCC[N+](C)(CCO)CCO)CCC(=O)OCCCCCCCCCCCC.[I-].[I-] [QD87] |  |  | 0.5% | 0.7% |  |  |  |  |  |  |  | 
14 | CCCCCCCCCCCCCCOC(=O)CC[N+](C)(CCCOC)CCC(=O)OCCCCCCCCCCCCCC.[I-] [QF1] | 0.4% | 0.3% | 0.4% | 0.3% | 0.3% | 0.3% |  |  |  |  |  | 
15 | CCCCCCCCCCCCCCOC(=O)CC[N+](C)(CCC(=O)OCCCCCCCCCCCCCC)CCC1OCCO1.[I-] [QF6] | 0.0% | 0.0% | 0.0% | 0.0% | 0.0% | 0.0% |  |  |  |  |  | 
16 | CCCCCCCCCCCCCCOC(=O)CC[N+](C)(CCC(=O)OCCCCCCCCCCCCCC)CC1COC(C)(C)O1.[I-] (centres unmarked) [QF7] | 0.0% | 0.0% | 0.0% | 0.0% | 0.0% | 0.0% |  |  |  |  |  | 
17 | CCCCCCCCCCCCCCOC(=O)CC[N+](C)(CCC(=O)OCCCCCCCCCCCCCC)CCC1CCC[N+]1(C)C.[I-].[I-] (centres unmarked) [QF77] | 0.4% | 0.4% | 0.7% | 1.3% | 2.7% | 9.9% |  |  |  |  |  | 
18 | CCCCCCCCCCCCCCCOC(=O)CC[N+](C)(CCCOC)CCC(=O)OCCCCCCCCCCCCCCC.[I-] [QG1] | 0.4% | 0.5% | 0.4% | 0.4% | 0.3% | 0.3% |  |  |  |  |  | 
19 | CCCCCCCCCCCCCCCOC(=O)CC[N+](C)(CCC(=O)OCCCCCCCCCCCCCCC)CCC1OCCO1.[I-] [QG6] | 0.0% | 0.0% | 0.0% | 0.0% | 0.0% | 0.0% |  |  |  |  |  | 
20 | CCCCCCCCCCCCCCCOC(=O)CC[N+](C)(CCC(=O)OCCCCCCCCCCCCCCC)CC1COC(C)(C)O1.[I-] (centres unmarked) [QG7] | 0.4% | 0.3% | 0.5% | 0.3% | 0.4% | 0.3% |  |  |  |  |  | 
21 | CCCCCCCCCCCCCCCOC(=O)CC[N+](C)(CCC(=O)OCCCCCCCCCCCCCCC)CCC1CCC[N+]1(C)C.[I-].[I-] (centres unmarked) [QG77] | 0.5% | 0.6% | 1.5% | 5.6% | 18.8% | 29.5% |  |  |  |  |  | 

From patent publication US9006487B2, “Amine-containing lipids and uses thereof” (Massachusetts Institute of Technology, priority 2005, dated 2015)
